According to US9296818B2, “Cleavage inhibitors of transforming growth factor beta type I receptor and uses thereof in cancer therapy” (priority 2011, dated 2016):
Entries after “also recorded” stand apart in the source; their conditions may differ.

Key:
[1] = tested on: PC-3U cells; test: CytoSelect cell invasion assay, PC-3U; format: cell-based, human
Method: (§1) Invasion assays were performed using the CytoSelect Cell Invasion Assay (Cell Biolabs, Inc., San Diego, Calif.). Briefly, the basement membrane layer of the cell culture inserts were rehydrated in 300 μl serum-free RPMI-1640 and 2×10^6 cells were seeded into the upper sections of the chambers in serum-free RPMI-1640 with or without TGFβ. The lower wells of the invasion plates were filled with 500 μl RPMI supplemented with 10% FBS. Non-invasive cells were removed from the upper chamber and invasive cells were stained with crystal violet cell stain solution. Invasive cells were photographed with a Leica DMR light microscope. Colorimetric quantification was performed by transferring inserts into 200 μl of extraction solution for 10 min and then, transferring to a 96-well microtiter plate. The OD at 560 nm was determined with a plate reader (Supplementary Information FIG. S5a).
The cancer cell invasion assay described in Example 1 above was performed to examine the ability of γ-secretase inhibitors in suppressing cancel cell invasion. Prostate cancers cells PC-3U, human lung carcinoma cells A549, and human breast carcinoma cells MDA-MB-231 were cultured following routine procedures, treated with TGFβ in the presence of absence of L-685,458, a γ-secretase inhibitor. Cells were visualized by staining with a crystal violet cell staining solution. […]

[2] = tested on: MDA-MB-231 cells; test: CytoSelect cell invasion assay, MDA-MB-231; format: cell-based, human
Method: as §1
(§2) The cancer cell invasion assay described in Example 1 above was performed to examine the ability of γ-secretase inhibitors in suppressing cancel cell invasion. Prostate cancers cells PC-3U, human lung carcinoma cells A549, and human breast carcinoma cells MDA-MB-231 were cultured following routine procedures, treated with TGFβ in the presence of absence of L-685,458, a γ-secretase inhibitor. Cells were visualized by staining with a crystal violet cell staining solution.

[3] = tested on: A549 cells; test: CytoSelect cell invasion assay, A549; format: cell-based, human
Method: as §1, §2

[4] = tested on: TβRI; test: Formation of TβRI ICD (immunoblotting of cell lysates); format: cell-based, human; conditions: PC-3U cells
Method: (§3) Protein-G Sepharose was obtained from GE Healthcare.; LumiLight Western blotting substrate and Pefabloc were from Roche, PageRuler prestained protein ladder was from Fermentas; and TAPI-2 was from BIOMOL Research Laboratories Inc. TAPI-2 was used at concentrations of 10-20 μM. The p38α/β inhibitor (SB203580) was purchased from Calbiochem (it was used at a concentration of 10 μM). PKCζ pseudosubstrate was from TOCRIS Bioscience and used at concentrations of 10-50 μM. The PKCζ activator, phorbol 12-myristate 13-acetate (PMA, referred to as TPA in our paper), and a TβRI inhibitor (SB505124) were purchased from Sigma. The SB505124 inhibitor was used at a concentration of 10 μM and the TPA at a concentration of 100 nM. The general PKCζ inhibitor, GF109203X, was purchased from Sigma. All inhibitors were added to cells 1 h before TGFβ stimulation.
(§4) Cells were starved for 12-18 h and then stimulated with TGFβ for the indicated time periods, washed twice in ice-cold PBS, and lysed in ice-cold lysis buffer (150 mM NaCl, 50 mM Tris pH 8.0, 0.5% (v/v) deoxycholate, 1% (v/v) NP40, 10% (v/v) glycerol, 1 mM aprotinin, 1 mM Pefabloc and 2 mM sodium orthovanadate). After centrifugation, supernatants were collected and protein concentrations were determined using the bicinchoninic acid (BCA) protein measurement kit (Nordic Biolabs). Equal volumes were subjected to immunoprecipitation. […]

[5] = tested on: TβRI ICD; test: Nuclear accumulation of TβRI ICD (immunofluorescence, nuclear fractionation); format: cell-based, human
Method: Before TGF-β1 stimulation, the cells were starved for 12-18 h in medium supplemented with 1% FBS. In all assays, the cells were stimulated with 10 ng/ml TGFβ1 (R&D System, UK).
as §3
as §4, with “immunoprecipitation. Equal amounts of protein from total cell lysates and immunoprecipitations were subjected to electrophoresis on 6%, 10%, 12%, or 4-12% gradient SDS-polyacrylamide gels (SDS-PAGE), blotted on to polyvinylidine difluoride membranes, and subjected to immunoblotting, as previously described.^23 The […] cell lysate from Santa Cruz was used as a positive control for TβRI.” for “immunoprecipitation.”

[6] = biological target: T1, PKCζ (Homo sapiens, UniProt Q05513); test: Activation of PKCζ (immunoblotting for p-PKCζ); format: cell-based; conditions: PC-3U cells
T1 construct: Cell lysates from PC-3U cells treated with TGFβ or TPA were subjected to immunoblotting with an antiserum against pPKCζ; endogenous in cells; host or cells: PC-3U (human prostate cancer cell line)
T1 sequence (Q05513 1-592): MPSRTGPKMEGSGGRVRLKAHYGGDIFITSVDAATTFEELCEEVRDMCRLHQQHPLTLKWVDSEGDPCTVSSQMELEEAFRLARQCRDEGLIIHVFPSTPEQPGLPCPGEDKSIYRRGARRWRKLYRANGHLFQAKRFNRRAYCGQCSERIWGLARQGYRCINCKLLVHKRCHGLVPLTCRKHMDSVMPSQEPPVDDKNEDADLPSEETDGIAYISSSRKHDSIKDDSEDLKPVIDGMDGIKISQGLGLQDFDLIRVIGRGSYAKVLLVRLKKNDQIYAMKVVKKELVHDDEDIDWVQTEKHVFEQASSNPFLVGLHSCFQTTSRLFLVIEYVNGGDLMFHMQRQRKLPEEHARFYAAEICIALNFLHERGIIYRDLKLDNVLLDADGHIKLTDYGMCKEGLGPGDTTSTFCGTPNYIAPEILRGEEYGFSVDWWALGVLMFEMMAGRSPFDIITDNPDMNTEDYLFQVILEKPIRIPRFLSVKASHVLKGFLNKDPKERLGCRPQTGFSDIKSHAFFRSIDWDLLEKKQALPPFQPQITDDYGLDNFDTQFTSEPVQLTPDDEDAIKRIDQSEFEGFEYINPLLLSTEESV
Method: Cells were starved for 12-18 h and then stimulated with TGFβ for the indicated time periods, washed twice in ice-cold PBS, and lysed in ice-cold lysis buffer (150 mM NaCl, 50 mM Tris pH 8.0, 0.5% (v/v) deoxycholate, 1% (v/v) NP40, 10% (v/v) glycerol, 1 mM aprotinin, 1 mM Pefabloc and 2 mM sodium orthovanadate). After centrifugation, supernatants were collected and protein concentrations were determined using the bicinchoninic acid (BCA) protein measurement kit (Nordic Biolabs). Equal volumes were subjected to immunoprecipitation. Equal amounts of protein from total cell lysates and immunoprecipitations were subjected to electrophoresis on 6%, 10%, 12%, or 4-12% gradient SDS-polyacrylamide gels (SDS-PAGE), blotted on to polyvinylidine difluoride membranes, and subjected to immunoblotting, as previously described.^23 The […] cell lysate from Santa Cruz was used as a positive control for TβRI. The ubiquitination assays, immunofluorescence assays, and transient transfections were performed as previously described.^5,23,24 Photomicrographs were obtained with a Zeiss 510 Meta (Carl Zeiss Microimaging, Inc.) equipped with a digital camera (RET-EXi-F-M-12-C) from Q-imaging.

With `CC(C)C[C@H](NC(=O)[C@H](Cc1ccccc1)C[C@@H](O)[C@H](Cc1ccccc1)NC(=O)OC(C)(C)C)C(=O)N[C@@H](Cc1ccccc1)C(N)=O` [L-685,458] the “TGFβ-induced cancer cell invasion” value [1] was “significantly suppressed”, the “TGFβ-induced cancer cell invasion” value [2] was “significantly suppressed” and the “TGFβ-induced cancer cell invasion” value [3] was “significantly suppressed”.
`Cc1cccc(-c2[nH]c(C(C)(C)C)nc2-c2ccc3c(c2)OCO3)n1` [SB505124] was tested, and the “formation of the TβRI ICD” value [4] was “no major effect”.
For `CC(C)C[C@H](CC(=O)NO)C(=O)N[C@H](C(=O)N[C@@H](C)C(=O)NCCN)C(C)(C)C` [TAPI-2], the “nuclear translocation/accumulation of TβRI ICD in response to TGFβ stimulation” value ([5]; PC-3U cells, TGFβ, inhibitor added 1 h before TGFβ, V22 antibody) was “reduction; also recorded: partly prevented”.
In the case of phorbol 12-myristate 13-acetate [TPA], the “ICD in the nuclear fraction” value ([5]; HA-caTβRI-expressing PC-3U cells treated with TPA) is reported as “accumulated in the nuclear fraction”, the “nuclear accumulation of endogenous TβRI ICD, immunofluorescence” value ([5]; PC-3U cells treated with TPA alone, 6 h) is reported as “led to nuclear accumulation” and the “activation of PKCζ (p-PKCζ)” value [6] is reported as “activated”.
